The conditions of data set [1]: cited from earlier work.
The subject of data set [2] is iNOS expression in tumor endothelium of NGP tumors. The data set is described as follows: iNOS immunohistochemistry in tumor endothelium (lectin-positive area) 72 h after sonopermeation transfection. The data set is classed as in vivo, nude athymic mice. The following applies: 72 h after transfection. From the text:
(§1) Orthotopic NGP Tumor Model and Implantation. NGP cells were MYC-N amplified, and thus function as an appropriate model for poor prognosis NB. They reproduce many features of clinical NB, such as histology, frequency, and location of metastatic lesions when renally implanted, as was done in nude athymic mice (Charles River, Wilmington, Mass.) to generate tumor models for this study. Mice were firstly anesthetized with inhalable isoflurane. After being positioned in a sterile environment, the entire right side of each mouse was cleaned with ethanol and painted with Betadine. A 3-5 mm diagonal incision was made with a scalpel blade toward the ribcage atop the kidney. The underlying fascia was cut with scissors to expose the right kidney. A 27-gauge needle (of length 1.3 cm, BD Biosciences) fitted to a syringe containing 20 μL of cell suspension (1×10^6 NGP cells in Phosphate Buffered Saline, Leibniz Institute DSMZ-GmbH, Braunschweig, Germany) was inserted into the kidney and its contents injected slowly. The kidney was then returned to the abdominal cavity. […] Mice were monitored daily to confirm complete recovery, and tumors were allowed to grow for 4-5 weeks (1-2-g weight) before ultrasound experiments were initiated. […]
Quantitative Ex Vivo Imaging. […] The images were then analyzed in ImageJ (NIH, USA), selecting the lectin-positive area of the picture taken to create the area to be quantified. […]

The test system of data set [3] is iNOS expression in adjacent glomeruli. The data set is described as follows: iNOS immunohistochemistry in adjacent kidney glomeruli after sonopermeation transfection. The data set is classed as in vivo, nude athymic mice. As to conditions: p>0.05. From the text:
Quantitative Ex Vivo Imaging. For iNOS expression colocalization studies, sections were imaged on a Marianas Confocal (Zeiss) using a 40X oil objective, capturing 14 steps of 0.33 μm on the z-axis, with a resolution of 0.33 μm per pixel. At least five images of each tumor of were taken, with four tumors per group. To avoid bias, the endothelial marker Isolectin-B4 was used to determine image capture and focus and iNOS staining was captured at equal exposure times for all tissues. The images were then analyzed in ImageJ (NIH, USA), selecting the lectin-positive area of the picture taken to create the area to be quantified. This area was then used to quantify the mean intensity of the iNOS staining within the tumor endothelium. The mean iNOS intensity within each tumor endothelium z-stack was then averaged to obtain the mean iNOS intensity of each tumor blood vessel analyzed. Averages were then obtained for each tumor. Because tumor cells were injected directly into the kidney and often coopt glomeruli and tubules (PMID: 24066611), NOS expression was quantified in the adjacent kidney in a separate analysis, following the same method as tumor iNOS quantification. Quantification of pimonidazole and Isolectin was performed using the average intensities from the respective stains comparing the iNOS treated and Sham groups using FIJI (NIH). […]

Data set [4] has as its system orthotopic NGP tumor. The data set is described as follows: Animal survival study (days for tumors to increase by 50% above starting volume, up to 14 days). The data set is classed as in vivo, nude athymic mice. The following applies: plasmid transfection followed by L-DOX with sonopermeation; study endpoint 14 days.
Experimental: Animal Survival Studies. Survival in vivo experiments were performed as detailed above. Briefly, mature tumors were primed with gene therapy (either mKate or iNOS), transfected by sonopermeation with 1×10^9 cationic polydispersed MBs having median diameter ˜2 μm. 72 h following gene therapy treatment, sonopermeation was performed using net-neutral lipid MBs to deliver liposomal doxorubicin as described above. For this experiment, due to the volume of bubbles needed, size-isolated microbubbles (SIMBs) were obtained from Advanced Microbubbles Inc to perform imaging and sonopermeation. Tumors were measured every other day until they reached the endpoint criteria up to 14 days using calipers, and re-imaged with a bolus of 1×10^7 SIMBs on Day 7 as well as re-dosed with L-DOX in conjunction with sonopermeation. Normalized tumor growth over the two-week observation period was obtained by dividing the volume on any given day by initial tumor volume. Kaplan-Meier curves were generated to plot the number of days it took for tumors to increase by 50% above their starting volume up to 14 days. Survival curves were plotted, and statistical analyses were conducted in Graphpad (Prism 6). Statistical significance between groups represents Mantel-Cox test, with p<0.05 interpreted as significant.
Data set [5] relates to orthotopic NGP tumor. The data set is described as follows: Quantitative contrast-enhanced ultrasound (qCEUS) imaging of tumor perfusion volume and reperfusion rate. The data set is classed as in vivo, nude athymic mice.
Text: as §1, with “kidney.” for “kidney. A 27-gauge needle (of length 1.3 cm, BD Biosciences) fitted to a syringe containing 20 μL of cell suspension (1×10^6 NGP cells in Phosphate Buffered Saline, Leibniz Institute DSMZ-GmbH, Braunschweig, Germany) was inserted into the kidney and its contents injected slowly. The kidney was then returned to the abdominal cavity.”
3D Volume and 2D Perfusion Imaging. […] Data were collected and subsequently analyzed using custom LabVIEW software, where tumor boundaries were manually segmented. […] As described in Wei K, et al., Quantification of Myocardial Blood Flow With Ultrasound-Induced Destruction of Microbubbles Administered as a Constant Venous Infusion, Circulation, 1998; 97: 473-83, MB perfusion conforms to the equation y=A (1−e^βt), where A is the relative blood volume (RBV) and β is the rate of reperfusion. […]

A further data set relates to iNOS. The data set is described as follows: ELISA of protein extracts from transfected NGP cells (iNOS expression). The data set is classed as cell-based, H. sapiens. The following applies: NGP cell protein extracts, n=3. (In general: ELISA stands for enzyme-linked immunosorbent assay.)
In data set [6] the test system is orthotopic NGP tumor. The data set is described as follows: Immunohistochemical analysis of tumor vascularity and hypoxia (Isolectin-B4, aSMA, pimonidazole) 72 h after transfection. The data set is classed as in vivo, nude athymic mice. More on the design: unit not given here. As for the experimental part:
Tumoral Hypoxia Measurements. 60 mg/kg pimonidazole-HCl (Hypoxyprobe, Massachusetts) was injected intraperitoneally 30 min before sacrifice, and tissues were harvested and processed as described above.
Immunohistochemistry. Excised NGP tumors were embedded in Tissue-Tek® optimum cutting temperature (O.C.T.) compound (Electron Microscopy Services), then stored at −20 ° C. until cryosectioned (Leica CM1860). 15 μm thick cryosections were fixed with acetone and permeabilized with Tween 20. […]
Quantitative Ex Vivo Imaging. […] The images were then analyzed in ImageJ (NIH, USA), selecting the lectin-positive area of the picture taken to create the area to be quantified. This area was then used to quantify the mean intensity of the iNOS staining within the tumor endothelium. The mean iNOS intensity within each tumor endothelium z-stack was then averaged to obtain the mean iNOS intensity of each tumor blood vessel analyzed. […] Because tumor cells were injected directly into the kidney and often coopt glomeruli and tubules (PMID: 24066611), NOS expression was quantified in the adjacent kidney in a separate analysis, following the same method as tumor iNOS quantification. Quantification of pimonidazole and Isolectin was performed using the average intensities from the respective stains comparing the iNOS treated and Sham groups using FIJI (NIH). […]

Bounds are passed on as bounds.

For the compound `[N]=O` [NO, Nitric oxide], the half-life in vivo in data set [1] (in vivo) is less than 0.002 s. In addition, the “half-life in whole blood” value in data set [1] (whole blood) was 0.0018 s.

In the case of Sham, the “iNOS in tumor endothelial cells compared with untreated tumors” value in data set [2] is reported as “no change in iNOS”. The “iNOS mean intensity within lectin-positive area” value in data set [2] (n=4 per group) is on record as 8,814±2,952. Besides, in data set [3], the “iNOS expression in adjacent glomeruli” value was “remains unchanged”. Further, the “median survival time (time to 50% tumor growth)” value in the data set with orthotopic NGP tumor [4] amounted to 9 days. Further, the “change in RBV (normalized to tumor volume, vascularity) from baseline” value with orthotopic NGP tumor [5] (3 days post-transfection) is on record as 68±7%. For the same compound, the “rate of MB reperfusion (RR) normalized to TV” value in the data set on orthotopic NGP tumor [5] (day 3 after transfection) worked out at 77±8%. Besides, the “iNOS protein by ELISA” value in the data set with iNOS came to 0.04 units. Further, the “distance between aSMA pericytes and endothelium” value with orthotopic NGP tumor [6] is 5.8±1.1.
